# Measured values from US20220370381A1 (priority 2016, published 2022).
# Experiments:
# CRL NMRI mice = assay: Mouse 6-Hz model of refractory seizures; assay type: in vivo; conditions: 5.0 or 20.0 mg/kg i.p.
# Method: The 6 Hz mouse model is a model system used to assess the efficacy of putative anti-seizure medications for refractory epilepsies generally, without regard to type.
# The efficacy of FA in the mouse 6-Hz model was assessed by behavioral characterization after intraperitoneal injection of CRL NMRI mice (30-35 g) with VHC (50/50 DMSO/PEG200) or FA (5.0 or 20.0 mg/kg). Animals were placed in one of three treatment groups: vehicle (n=10), FA 5 mg/kg (n=6) and FA 20 mg/kg (n=6). Seizures were transcorneal-induced 1 h after injection (6-Hz, 0.2 ms pulse width, 44 mA).
# Swiss OF-1 mice = assay: Spontaneous alternation in the Y-maze, dizocilpine-induced deficit; assay type: in vivo, mouse
# [1] = molecular target: human β-2 adrenergic receptor (Homo sapiens, UniProt P07550); assay: β-2 adrenergic receptor antagonist assay, agonist-induced cAMP production (HTRF); assay type: cell-based; design: expressed in transfected cells; host or cells: HEK-293; conditions: inhibition of isoproterenol-induced cAMP production
# Method: Transfected HEK-293 cells expressing human β-1 adrenergic receptor, human β-2 adrenergic receptor, and human β3 adrenergic receptor, respectively, were prepared using cloned human cDNA. See H FRIELLE, T., COLLINS, S., DANIEL, K. W., CARON, M. G., LEFKOWITZ, R. J., KOBILKA, B. K. (1987), Cloning of the cDNA for the human beta1-adrenergic receptor, Proc. Natl. Acad. Sci. U.S.A., 84,7920, and BAKER, J. G. (2005) The selectivity of Beta-adrenoreceptor antagonists at the human Beta1, Beta2 and Beta3 adrenoreceptor, Brit.
# Transfected cells were suspended in HBSS buffer (Invitrogen) complemented with 20 mM HEPES (pH 7.4) and 500 μM IBMX. […] The cells were then distributed in 96 well microplates (see FIG. 15 for plating densities).
# After plating, the cells were induced by adding reference agonist. See FIG. 15 for reference agonists and concentrations used for each assay. […] The cells were then incubated 30 minutes at room temperature.
# Subsequently, the cells were lysed and a fluorescence acceptor (D2-labeled cAMP) and a fluorescence donor (anti-cAMP antibody labeled with europium cryptate) were added to the wells.
# Standard reference antagonists were tested in each experiment at several concentrations to generate a concentration-response curve from which its IC50 value is calculated.
# EC50 values (concentration producing a half-maximal response) and IC50 values (concentration causing a half-maximal inhibition of the control agonist response) were determined by non-linear regression analysis of the concentration-response curves generated with mean replicate values using Hill equation curve fitting: […]
# For the antagonists, the apparent dissociation constants (KB) were calculated using the modified Cheng Prusoff equation:
# KB=IC50/[1+(A/EC50A)], where
# Sigma 1 = Sigma 1 (Cavia porcellus, UniProt Q60492); assay: Sigma-1 receptor tissue bioassay, guinea pig vas deferens, antagonist activity ((+)SKF-10047-induced response); design: Segments of guinea pig vas deferens were suspended in 20-ml organ baths; from tissue; host or cells: guinea pig vas deferens
# [2] = tested on: wild-type zebrafish (ZF) larvae; assay: PTZ-induced seizures in wild-type zebrafish larvae, behavioral (locomotor) assay; assay type: in vivo; conditions: wt zebrafish; p>0.05 vs. VHC+PTZ
# DBA/1 mice [3] = assay: Seizure-induced respiratory arrest (S-IRA) in DBA/1 mice; assay type: in vivo, mouse
# Sigma non-selective = assay: Competitive radioligand binding assay, sigma non-selective; design: species or system Guinea pig; conditions: test article 1×10^−6 and 1×10^−5 mol/L; guinea pig brain
# [4] = tested on: homozygous scn1Lab−/− mutant zebrafish; assay: Forebrain local field potential (LFP) recordings in homozygous scn1Lab−/− mutant zebrafish larvae; assay type: in vivo; conditions: 25, 50 or 100 μM for 24 h; p<0.05 vs. VHC
# Method: (§1) ZF larvae were treated on 6 dpf with vehicle (VHC, 0.1% dimethyl sulfoxide, DMSO, or FA (25, 50 or 100 μM) for 24 h. Thereafter, the locomotor activity (behavior) was monitored by an automated tracking device. Subsequently, forebrain local field potentials and forebrain activity (LFPs, brain activity) were measured to confirm anticonvulsant effects of FA treatment, if indicated by the behavioral assays.
# hNav1.5 = hNav1.5 (Homo sapiens, UniProt Q14524); assay: Ion channel profiling, IonFlux HT automated patch clamp, hNav1.5
# [5] = tested on: homozygous scn1Lab−/− mutant zebrafish; assay: Locomotor (behavioral) assay in homozygous scn1Lab−/− mutant zebrafish larvae (Dravet syndrome model); assay type: in vivo; conditions: 25, 50 or 100 μM for 24 h, 6 dpf larvae; p<0.05 vs. VHC
# Method: as §1
# [6] = tested on: T1, β-Adrenergic (Non-selective); assay: Competitive radioligand binding assay, β-adrenergic (non-selective); design: species or system Rat; conditions: test article 1×10^−6 and 1×10^−5 mol/L; rat brain
# T1 construct: β-1 adrenergic; other: test article 1×10^−6 and 1×10^−5 mol/L; rat brain
# DBA/1 mice [7] = assay: Audiogenic seizures (AGSz) in DBA/1 mice; assay type: in vivo, mouse
# Sequence of Sigma 1 (Q60492 whole entry): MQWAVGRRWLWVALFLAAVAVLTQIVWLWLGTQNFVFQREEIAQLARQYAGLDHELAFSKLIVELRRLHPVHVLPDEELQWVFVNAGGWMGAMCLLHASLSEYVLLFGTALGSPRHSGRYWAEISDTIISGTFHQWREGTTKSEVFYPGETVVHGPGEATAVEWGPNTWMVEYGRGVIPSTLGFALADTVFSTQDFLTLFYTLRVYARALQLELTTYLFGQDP
# Sequence of human β-2 adrenergic receptor (P07550 whole entry): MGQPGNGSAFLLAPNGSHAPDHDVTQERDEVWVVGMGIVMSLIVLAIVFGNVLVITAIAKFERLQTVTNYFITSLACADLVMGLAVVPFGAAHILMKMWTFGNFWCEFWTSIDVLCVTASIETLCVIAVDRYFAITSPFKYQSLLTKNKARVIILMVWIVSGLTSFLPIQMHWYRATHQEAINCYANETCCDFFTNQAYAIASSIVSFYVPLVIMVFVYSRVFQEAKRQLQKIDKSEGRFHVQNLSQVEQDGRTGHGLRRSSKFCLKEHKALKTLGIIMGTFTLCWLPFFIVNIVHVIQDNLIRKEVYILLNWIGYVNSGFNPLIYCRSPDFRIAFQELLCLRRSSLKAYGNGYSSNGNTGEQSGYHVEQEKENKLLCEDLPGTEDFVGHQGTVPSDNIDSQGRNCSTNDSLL
# Sequence of hNav1.5 (Q14524 whole entry): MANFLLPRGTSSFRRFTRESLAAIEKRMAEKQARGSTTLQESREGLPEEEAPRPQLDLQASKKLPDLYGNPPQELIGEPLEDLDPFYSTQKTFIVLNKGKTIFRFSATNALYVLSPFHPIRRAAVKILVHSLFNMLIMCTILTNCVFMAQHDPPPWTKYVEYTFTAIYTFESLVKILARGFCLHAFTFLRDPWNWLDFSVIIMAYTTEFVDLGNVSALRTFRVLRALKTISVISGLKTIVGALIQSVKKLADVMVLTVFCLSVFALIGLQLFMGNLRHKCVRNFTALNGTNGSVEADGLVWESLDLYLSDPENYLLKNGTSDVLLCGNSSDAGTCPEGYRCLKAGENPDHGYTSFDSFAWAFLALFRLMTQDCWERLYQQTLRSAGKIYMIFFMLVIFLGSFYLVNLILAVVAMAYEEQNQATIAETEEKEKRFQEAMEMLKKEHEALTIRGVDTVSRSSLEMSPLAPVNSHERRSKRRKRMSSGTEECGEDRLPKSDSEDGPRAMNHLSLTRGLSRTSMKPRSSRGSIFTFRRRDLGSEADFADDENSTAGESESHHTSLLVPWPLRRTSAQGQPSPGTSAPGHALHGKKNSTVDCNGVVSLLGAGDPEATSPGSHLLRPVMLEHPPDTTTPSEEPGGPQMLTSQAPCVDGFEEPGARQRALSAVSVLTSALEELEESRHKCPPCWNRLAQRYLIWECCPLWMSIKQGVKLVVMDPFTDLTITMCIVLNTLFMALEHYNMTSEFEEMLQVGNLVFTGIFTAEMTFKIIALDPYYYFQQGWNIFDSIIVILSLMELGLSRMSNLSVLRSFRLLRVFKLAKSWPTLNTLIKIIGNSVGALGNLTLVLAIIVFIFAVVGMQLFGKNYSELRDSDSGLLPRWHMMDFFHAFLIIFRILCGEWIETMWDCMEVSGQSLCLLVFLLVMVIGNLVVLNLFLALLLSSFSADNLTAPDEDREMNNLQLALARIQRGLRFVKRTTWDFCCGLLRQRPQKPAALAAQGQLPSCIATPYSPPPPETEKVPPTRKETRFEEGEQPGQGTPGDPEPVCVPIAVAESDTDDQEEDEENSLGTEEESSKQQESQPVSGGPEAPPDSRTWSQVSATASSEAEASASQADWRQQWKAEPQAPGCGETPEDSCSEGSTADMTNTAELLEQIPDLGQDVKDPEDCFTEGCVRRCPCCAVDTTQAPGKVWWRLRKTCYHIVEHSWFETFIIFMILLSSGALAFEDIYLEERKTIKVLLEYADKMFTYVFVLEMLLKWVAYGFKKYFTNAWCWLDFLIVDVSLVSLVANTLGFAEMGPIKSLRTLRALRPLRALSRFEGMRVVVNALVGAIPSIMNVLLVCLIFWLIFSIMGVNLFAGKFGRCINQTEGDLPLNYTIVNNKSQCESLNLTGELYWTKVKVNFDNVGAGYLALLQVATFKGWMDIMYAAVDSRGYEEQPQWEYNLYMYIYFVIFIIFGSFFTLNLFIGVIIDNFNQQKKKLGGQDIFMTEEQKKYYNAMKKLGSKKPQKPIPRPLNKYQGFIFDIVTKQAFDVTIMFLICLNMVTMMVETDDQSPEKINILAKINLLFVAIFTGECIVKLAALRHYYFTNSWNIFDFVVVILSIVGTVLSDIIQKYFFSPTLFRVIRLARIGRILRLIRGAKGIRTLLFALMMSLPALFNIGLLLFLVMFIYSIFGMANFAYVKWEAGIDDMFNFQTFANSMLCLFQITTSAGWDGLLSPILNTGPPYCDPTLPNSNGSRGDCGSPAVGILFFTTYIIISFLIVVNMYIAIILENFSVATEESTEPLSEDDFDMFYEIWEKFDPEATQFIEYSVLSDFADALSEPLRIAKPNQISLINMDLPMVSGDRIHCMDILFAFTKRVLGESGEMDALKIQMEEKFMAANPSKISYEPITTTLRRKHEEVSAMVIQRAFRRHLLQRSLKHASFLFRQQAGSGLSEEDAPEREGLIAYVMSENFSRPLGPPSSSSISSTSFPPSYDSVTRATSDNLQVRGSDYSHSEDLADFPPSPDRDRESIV
smiles,measurement,setting,value
"CCNC(C)Cc1cccc(C(F)(F)F)c1 (racemic) [fenfluramine, (RS)—N-ethyl-1-[3-(trifluoromethyl)phenyl]propan-2-amine]",period of post-seizure aggression,CRL NMRI mice,did not
same,seizures in the mouse 6-Hz model,"CRL NMRI mice; 1 h before 6-Hz 44 mA stimulation, p<0.05 vs. VHC",significantly reduced seizures
same,dizocilpine-induced deficit of spontaneous alternation,"Swiss OF-1 mice; dizocilpine […], most active doses 0.3 and 1 mg/kg IP",significantly attenuated
same,interaction with PRE-084 (sigma-1 receptor behaviour in vivo),"Swiss OF-1 mice; fenfluramine at maximal inactive dose (0.1), Y-maze and passive avoidance data",behaves as a sigma-1 receptor PAM
same,antagonist activity at the beta-2 adrenergic receptor,[1],some antagonist activity
same,behaviour at the sigma receptor (mode of action),Sigma 1; conclusion from guinea pig vas deferens tissue bioassay,positive allosteric modulators
same,"effect on the (+)SKF-10,047-induced increase in twitch contraction amplitude","Sigma 1; field-stimulated guinea pig vas deferens, (+)SKF-10047 100 μM",slightly increased
same,antiseizure effect on PTZ-induced seizures,[2],no observable antiseizure effects
same,effect on seizures and S-IRA,DBA/1 mice [3]; 5 mg/kg,ineffective
same,S-IRA,"DBA/1 mice [3]; 15 mg/kg, at 16h, p<0.001",selective S-IRA blocking effect
same,time at which S-IRA susceptibility returned,DBA/1 mice [3]; 40 mg/kg,72 h
same,S-IRA incidence and seizure severity,"DBA/1 mice [3]; 10-20 mg/kg, at 8h",reduction in S-IRA incidence and seizure severity
same,S-IRA susceptibility and seizure severity,"DBA/1 mice [3]; 10 and 15 mg/kg, at 12h",significantly (p<0.01) reduced S-IRA susceptibility and seizure severity
same,ED50,"DBA/1 mice [3]; Mus musculus, ip, 0.5 h, read-out: ED50, blockade of seizure-induced respiratory arrest (S-IRA)",18.6 mg/kg
same,time by which susceptibility to seizure and S-IRA returned,"DBA/1 mice [3]; time course study, 5-20 mg/kg",≤ 48 h
same,inhibition of receptor binding (tracer),Sigma non-selective,significantly inhibit
same,epileptiform brain activity (LFP recordings),[4],anti-epileptiform activity was consistently confirmed
same,IC50,hNav1.5,> 30 µM
same,epileptiform behavior (locomotor activity),[5],significantly decreased
same,inhibition of receptor binding (tracer),[6],significantly inhibit
same,seizure severity,"DBA/1 mice [7]; 15 mg/kg, at 16h, p<0.05",significantly reduced seizure severity
same,time at which seizure susceptibility returned,DBA/1 mice [7]; 40 mg/kg,48 h
same,seizures,"DBA/1 mice [7]; 40 mg/kg, at 30 min, p<0.001",completely blocked seizures
same,ED50,"DBA/1 mice [7]; Mus musculus, ip, 0.5 h, i.p., at 30 min, read-out: ED50, blockade of susceptibility to audiogenic seizures (AGSz)",31 mg/kg
same,"ED50, blockade of susceptibility to audiogenic seizures (AGSz)","DBA/1 mice [7]; i.p., at 30 min, listed as FFA",21.4 mg/kg
